# Laboratory results taken from ChEMBL document CHEMBL3507680, “University of Dundee, Gates Library screen for HepG2 cell viability”.
# Test: Human HepG2 cell viability assay in 384 well format
# Format: toxicity, cell-based
# Design: dose 125 nL, time 70.5 hour; concentration not given beside the values
# Details: HepG2 cells, read-out: Inhibition
compound,measurement,value
CN(C)C(=O)CN1CCCC(c2nccnc2-c2cccc(Cl)c2)C1 (stereo not given),cytotoxicity at 70.5 h,1.03%
CNC(=O)c1sc2ncccc2c1C1CCN(C(=O)CCOC)C1 (stereo not given),cytotoxicity at 70.5 h,-8.16%
CC(C)(C)C(=O)N1CCCC1c1cc(CO)[nH]n1 (stereo not given),cytotoxicity at 70.5 h,-1.34%
COc1ccc(C2CN(c3cc(C)ncn3)CCN2C(C)=O)cc1 (stereo not given),cytotoxicity at 70.5 h,-5.95%
CN1CCc2nc(C3CCCN(S(=O)(=O)c4ccccc4)C3)ncc2C1 (stereo not given),cytotoxicity at 70.5 h,-1.43%
CC(NC(=O)C(C)(C)C)c1cc(O)nc(-c2cccnc2)n1 (stereo not given),cytotoxicity at 70.5 h,-5.99%
CCc1c(C)nn2c(O)cc(C3CCN(C(=O)c4cnn(C)c4)C3)nc12 (stereo not given),cytotoxicity at 70.5 h,-0.531%
Cc1cc(C(=O)N2CCN(c3ncc4c(n3)CCOC4)CC2)sc1C,cytotoxicity at 70.5 h,2.24%
Cc1sc(Oc2ccccc2Cl)nc1C(=O)O,cytotoxicity at 70.5 h,7.28%
CCCn1cc(CN2CCOCC2c2[nH]ncc2C)cn1 (stereo not given),cytotoxicity at 70.5 h,-2.99%
CCOCC(=O)N1CCC(C)(c2nccs2)CC1,cytotoxicity at 70.5 h,13.6%
CN(C)Cc1cccc(-c2cccnc2C(=O)NCc2cn(C)cn2)c1,cytotoxicity at 70.5 h,-1.14%
O=C(Cc1cccs1)NCc1ccnc(C2CCCOC2)n1 (stereo not given),cytotoxicity at 70.5 h,3.29%
Cc1cc(C)nc(N2CC[C@H](Oc3ccccc3F)[C@@H](O)CC2)n1,cytotoxicity at 70.5 h,-3.75%
COCC(=O)N1CCc2nc(-c3cnccn3)nc(O)c2C1,cytotoxicity at 70.5 h,-8.12%
Cc1ccc2[nH]c(=O)c(CNCCCN3CCOCC3)cc2c1,cytotoxicity at 70.5 h,-8.68%
O=C(Cc1ccccn1)N1CCc2c(O)nc(-c3cnccn3)nc2C1,cytotoxicity at 70.5 h,-6.46%
Cc1ccc2cc(CNCCCN3CCOCC3)c(=O)[nH]c2c1C,cytotoxicity at 70.5 h,-8.68%
CC(C)(C)C(=O)N1CCC(n2nc(-c3ccco3)ccc2=O)CC1,cytotoxicity at 70.5 h,-4.38%
O=C1NCC2(CCCN(Cc3ccc(F)cc3)C2)Oc2ccccc21 (stereo not given),cytotoxicity at 70.5 h,-1.98%
O=C(CCc1ccccc1)N1CCCC(c2n[nH]c3nccnc23)C1 (stereo not given),cytotoxicity at 70.5 h,-6.72%
CSc1ccc(CN2CCCC3(CNC(=O)c4ccccc4O3)C2)cc1 (stereo not given),cytotoxicity at 70.5 h,2.19%
CCc1nc2ccccc2c(=O)n1CC1(O)CCN(C(=O)C(C)C)CC1,cytotoxicity at 70.5 h,-8.49%
O=C(Cc1ccsc1)N1CCCC(c2n[nH]c3ncccc23)C1 (stereo not given),cytotoxicity at 70.5 h,-5.61%
CS(=O)(=O)N1CCC(C(=O)NC(Cc2ccsc2)c2cccnc2)CC1 (stereo not given),cytotoxicity at 70.5 h,23.2%
Cc1nc(C2CCN(C(=O)c3cscn3)CC2)c2sccn12,cytotoxicity at 70.5 h,-1.33%
Cc1cc(-c2cnn(CCNC(=O)c3cnn(C)c3)c2C2CC2)on1,cytotoxicity at 70.5 h,-2.33%
CCc1cccc2cc(CNCCCN3CCOCC3)c(=O)[nH]c12,cytotoxicity at 70.5 h,0.0251%
Cc1cccc(CN2CCC(c3nnsc3S(C)(=O)=O)CC2)n1,cytotoxicity at 70.5 h,-4.43%
CS(=O)(=O)c1snnc1C1CCN(Cc2cccnc2)CC1,cytotoxicity at 70.5 h,8.4%
CNc1ncc(CN2CCC(c3nnsc3S(C)(=O)=O)CC2)cn1,cytotoxicity at 70.5 h,-7.26%
Cc1ccc(C(=O)N2CCC[C@@H]2Cn2nnc3c(O)nc(C)nc32)cc1,cytotoxicity at 70.5 h,-2.37%
Cc1cc(C)c2cc(CNC3CCCCC3)c3nn(C)c(=O)n3c2c1,cytotoxicity at 70.5 h,5.59%
Cc1cc(C)c2cc(CNCc3ccco3)c3nn(C)c(=O)n3c2c1,cytotoxicity at 70.5 h,19.9%
CCCn1ncc(CN2C[C@@H]3CCCN3C[C@@H]2Cc2ccccc2)c1C,cytotoxicity at 70.5 h,-2.55%
CCCN(C(=O)c1cccnc1)c1nc2c(s1)CCc1c-2cnn1C,cytotoxicity at 70.5 h,21%
Cc1cc(-c2ccccc2C(=O)O)nc(C2CCCCN2C)n1 (stereo not given),cytotoxicity at 70.5 h,-6.42%
Cc1cc(-c2cc(F)ccc2C(=O)O)nc(C2CCCN(C)C2)n1 (stereo not given),cytotoxicity at 70.5 h,2.71%
CC(C)N1CCC(Cc2cncc(-c3cc(F)ccc3C(=O)O)n2)C1 (stereo not given),cytotoxicity at 70.5 h,-6.34%
CN(C)Cc1ccnc(C2CCCN2Cc2cccc(F)c2F)n1 (stereo not given),cytotoxicity at 70.5 h,-2.17%
CN(C(=O)COc1ccc(F)cc1)[C@@H]1CC[C@@H](n2ccnc2)[C@@H]1O,cytotoxicity at 70.5 h,-4.21%
O=C(c1ccncc1)N1CC[C@@H](O)[C@@H](O)[C@H](N2CCC(F)(F)CC2)C1,cytotoxicity at 70.5 h,-0.846%
Cc1cccc(CN2CCCC2c2cccc(CCC(=O)O)n2)c1 (stereo not given),cytotoxicity at 70.5 h,15.7%
O[C@@H]1CN(Cc2ccncc2)C[C@H]1Oc1ccccc1,cytotoxicity at 70.5 h,-5.71%
CNc1cccc(C2CCCN(C(=O)c3cncs3)C2)n1 (stereo not given),cytotoxicity at 70.5 h,-4.52%
CNC(=O)c1cccc(C2CNCCN2C(=O)c2ccn(C)n2)c1 (stereo not given),cytotoxicity at 70.5 h,0.974%
CCc1cc(C(=O)N2CCCC2c2nc(O)cc(CC)n2)on1 (stereo not given),cytotoxicity at 70.5 h,-1.1%
Cc1nc(Nc2ncccn2)cc(C2CCCN2Cc2ncc[nH]2)n1 (stereo not given),cytotoxicity at 70.5 h,-2.88%
Cc1cncc(CN2C[C@@H](O)[C@H](Oc3ccccc3)C2)c1,cytotoxicity at 70.5 h,-0.379%
Cc1ccc(S(=O)(=O)N2CCC(O)(CN(C)C)C2)cc1 (stereo not given),cytotoxicity at 70.5 h,-4.32%
NCc1cn(-c2ccccc2C(=O)NCc2ccccc2Cl)cn1,cytotoxicity at 70.5 h,-8.27%
COc1ccccc1CNC(=O)c1ccccc1-n1cnc(CN)c1,cytotoxicity at 70.5 h,-9.04%
CNC(=O)C1(c2cnccn2)CCCN1C(=O)c1cccnc1OC (stereo not given),cytotoxicity at 70.5 h,-9.36%
Cc1nc(O)c2nnn(C[C@H]3CCCN3C(=O)c3ccccc3C)c2n1,cytotoxicity at 70.5 h,11.5%
C=Cn1ncc(CN2C[C@@H]3CCCN3C[C@@H]2CCSC)c1C,cytotoxicity at 70.5 h,-6.32%
CN(C)CC1(O)CCN(S(=O)(=O)c2cccc(F)c2)C1 (stereo not given),cytotoxicity at 70.5 h,-4.11%
CNc1cccc(C2CCCN(C(=O)Cc3ccccc3)C2)n1 (stereo not given),cytotoxicity at 70.5 h,-7.78%
CN(C)S(=O)(=O)N1CCCC(c2cccc(Cc3ccc(Cl)cc3)n2)C1 (stereo not given),cytotoxicity at 70.5 h,17.5%
CCS(=O)(=O)N1CCCC(Cc2cnccn2)C1 (stereo not given),cytotoxicity at 70.5 h,-6.07%
Cc1cn[nH]c1C1CCCCN1C(=O)CCc1ccc(F)cc1 (stereo not given),cytotoxicity at 70.5 h,-6.22%
CNc1cc(CNC(=O)c2cccnc2)nc(-c2ccncc2)n1,cytotoxicity at 70.5 h,-1.87%
CCc1ccc(C(=O)N2CC[C@H](Oc3cccnc3C)[C@@H](O)CC2)cc1,cytotoxicity at 70.5 h,14.4%
Nc1cc(CCC2CN(Cc3cccc(C(=O)O)c3)CCO2)ccn1 (stereo not given),cytotoxicity at 70.5 h,-7.61%
Cc1n[nH]cc1C(=O)N1CCCC(c2cccc(-n3ccnc3)n2)C1 (stereo not given),cytotoxicity at 70.5 h,-7.73%
Cc1ccc(C(=O)N2CCCC(c3[nH]ncc3S(C)(=O)=O)C2)s1 (stereo not given),cytotoxicity at 70.5 h,10.6%
O=C(Cc1cccs1)N1CCC(O)(CN2CCc3ccccc3C2)C1 (stereo not given),cytotoxicity at 70.5 h,-4.88%
CCc1cc(C(=O)N2CCCC(c3[nH]ncc3S(C)(=O)=O)C2)no1 (stereo not given),cytotoxicity at 70.5 h,-7.59%
Cc1ccsc1C(=O)N1CCC(O)(CN2CCc3ccccc3C2)C1 (stereo not given),cytotoxicity at 70.5 h,-6.62%
CN(C(=O)C1CCOCC1)[C@@H]1CCC[C@@H](N2CCOCC2)[C@@H]1O,cytotoxicity at 70.5 h,-5.89%
CN(CCc1ccccc1)Cc1c(C2CCNCC2)[nH]c2ncccc12,cytotoxicity at 70.5 h,-6.11%
CCc1onc(C)c1C(=O)N1CCN(c2ncc3c(n2)CCOC3)CC1,cytotoxicity at 70.5 h,-1.33%
Cc1nc(O)cc(C2(C)CCCNC2)n1 (stereo not given),cytotoxicity at 70.5 h,-3.13%
Cn1nc(C2CCCN(Cc3ccc(F)c(F)c3)C2)c2nccnc21 (stereo not given),cytotoxicity at 70.5 h,27.1%
COc1cccc(CN2CCCC(c3nn(C)c4nccnc34)C2)c1 (stereo not given),cytotoxicity at 70.5 h,14.8%
Cn1nc(C2CCN(C(=O)Cc3ccsc3)CC2)c2cccnc21,cytotoxicity at 70.5 h,-7.5%
Cn1nc(C2CCN(C(=O)CCN3CCOCC3)CC2)c2cccnc21,cytotoxicity at 70.5 h,-2.43%
CCc1nc2ccccc2c(=O)n1CC1(O)CCN(C(=O)COC)CC1,cytotoxicity at 70.5 h,-2.82%
OC[C@H]1CC[C@]2(CC1)CN(Cc1ccsc1)Cc1ccccc1O2,cytotoxicity at 70.5 h,7.87%
CCN(CC)S(=O)(=O)N1CCc2nc(C3CCNCC3)ncc2C1,cytotoxicity at 70.5 h,-4.41%
COc1cc(CN(CCCN(C)C)Cc2ccccn2)cc2c1OCO2,cytotoxicity at 70.5 h,0.223%
